Where two headings read alike, the source gives them in different places. Starred links: 1 amine or outer side, 2 acyl side, 3 side chain; linkers in the order of their positions; H or OH if unused. Positions of bridges follow the written chain, without caps; N, C: chain ends. Non-standard residues stand in square brackets, D forms with d. Residues, ends and D or L forms follow the SMILES beside them. *: point of attachment. Arg(Nω,Nω'-propylene) = N[C@@H](CCCNC1=NCCCN1)C(=O)O; Orn(2-imidazolinyl) = N[C@@H](CCCNC1=NCCN1)C(=O)O; dαMeDab = C[C@](CCN[*:3])(N[*:1])C(=O)[*:2]; dPhg(4-F) = N[C@@H](C(=O)O)c1ccc(F)cc1; dPhg(2-F) = N[C@@H](C(=O)O)c1ccccc1F; dPhg = N[C@@H](C(=O)O)c1ccccc1; Pyridin(2-yl) = c1ccc(*)nc1; dOrn = NCCC[C@@H](N)C(=O)O; Isobutyryl = CC(C)C(=O)*; Orn = NCCC[C@H](N)C(=O)O; Nva = CCC[C@H](N)C(=O)O; Abu = CC[C@H](N)C(=O)O A value given as a limit tells only on which side of the number the result lay.

Drawing on US20210130401A1, “PEPTIDOMIMETIC INHIBITORS OF THE WDR5-MLL INTERACTION” (THE REGENTS OF THE UNIVERSITY OF MICHIGAN, priority 2017, published 2021), this text covers IC50 and Ki for 13 molecules.

One assay addresses T1, WDR5 (Homo sapiens, UniProt P61964).
T1 construct: N-terminal His-tagged WDR5 protein (residues 24-334), named WDR5Δ23; made in house; host or cells: E. coli Rosetta 2 (DE3)
The assay is described as follows: fluorescence polarization (FP) based competitive binding assay to WDR5 protein. For orientation: In fluorescence polarisation assays a small probe gives low polarisation when free and higher when bound to something large.

Assay [1] relates to MOLM-13 leukemia cells carrying MLL-AF9 fusion. The assay is described as follows: cell viability assay (WST-8), MOLM-13. The class given is cell-based. Conditions: Homo sapiens, MOLM-13, 96 h, read-out: MOLM-13 IC50 (μM).
[2] abbreviates: calculated from IC50 by published equation, read-out: Binding Affinity to WDR5 Ki ± SD.
[3] abbreviates: read-out: Binding Affinity to WDR5 IC50 ± SD.

Description for WDR5: The plates were incubated at room temperature on a shaker for 3h, and then the mP values were measured using the Tecan Infinite M-1000 plate reader (Tecan U.S., Research Triangle Park, N.C.).

The IC50 is the concentration that gives 50% inhibition. As a reminder, the Ki is the dissociation constant of the complex between target and ligand, obtained from inhibition or displacement. Regarding `CC[C@@H]1NC(=O)[C@H](CCCNc2ccccn2)NC(=O)[C@](C)(NC(=O)C(C)C)CCNC(=O)[C@@H](c2ccccc2)NC1=O` [Cpd. No. 12, N-((3R,6S,9S,12R)-6-ethyl-12-methyl-2,5,8,11-tetraoxo-3-phenyl-9-(3-(pyridin-2-ylamino)propyl)-1,4,7,10-tetraazacyclotetradecan-12-yl)isobutyramide] (Isobutyryl-[dαMeDab][Orn](Pyridin(2-yl))[Abu][dPhg]; lactam 1-C), the IC50 on WDR5 is 3.25 nM; in assay [1] it was more than 10 µM. In addition, at WDR5, the Ki is less than 1 nM.
For `CC[C@@H]1NC(=O)[C@H](CCCNC2=NCCN2)NC(=O)[C@](C)(NC(=O)C(C)C)CCNC(=O)[C@@H](c2ccccc2)NC1=O` [Cpd. No. 17, N-((3R,6S,9S,12R)-9-(3-((4,5-dihydro-1H-imidazol-2-yl)amino)propyl)-6-ethyl-12-methyl-2,5,8,11-tetraoxo-3-phenyl-1,4,7,10-tetraazacyclotetradecan-12-yl)isobutyramide] (Isobutyryl-[dαMeDab][Orn(2-imidazolinyl)][Abu][dPhg]; lactam 1-C), in that order: 2.4 nM, 0.088 µM and less than 1 nM.
Take `CC[C@@H]1NC(=O)[C@H](CCCNC(=N)N)NC(=O)[C@](C)(NC(=O)C(C)C)CCNC(=O)[C@@H](c2ccc(F)cc2)NC1=O` [Cpd. No. 53, N-((3R,6S,9S,12R)-6-ethyl-3-(4-fluorophenyl)-9-(3-guanidinopropyl)-12-methyl-2,5,8,11-tetraoxo-1,4,7,10-tetraazacyclotetradecan-12-yl)isobutyramide] (Isobutyryl-[dαMeDab]R[Abu][dPhg(4-F)]; lactam 1-C): on WDR5, the IC50 is 0.878 nM and the Ki is less than 1 nM. Besides, the IC50 in assay [1] was 0.38 µM.
For the molecule `CC[C@@H]1NC(=O)[C@H](CCCNC(=N)N)NC(=O)[C@H](NC(=O)C(C)C)CCCNC(=O)[C@@H](c2ccccc2)NC1=O` [Cpd. No. 72, N-((3R,6S,9S,12R)-6-ethyl-9-(3-guanidinopropyl)-2,5,8,11-tetraoxo-3-phenyl-1,4,7,10-tetraazacyclopentadecan-12-yl)isobutyramide] (Isobutyryl-[dOrn]R[Abu][dPhg]; lactam 1-C), the Ki on WDR5 (setting [2]) is 32.9 ± 5.3 nM. Further, the IC50 on WDR5 (setting [3]) was 164 ± 26 nM.
The like results for `CC[C@@H]1NC(=O)[C@H](CCCNC(=N)N)NC(=O)[C@H](NC(=O)C(C)C)CCCCNC(=O)[C@@H](c2ccccc2)NC1=O` [Cpd. No. 73, N-((3R,6S,9S,12R)-6-ethyl-9-(3-guanidinopropyl)-2,5,8,11-tetraoxo-3-phenyl-1,4,7,10-tetraazacyclohexadecan-12-yl)isobutyramide] (Isobutyryl-[dK]R[Abu][dPhg]; lactam 1-C) were, in that order, 60.3 ± 11.9 nM and 298 ± 58 nM.
Turning to `CC[C@@H]1NC(=O)[C@H](CCCNC(=N)N)NC(=O)[C@](C)(NC(=O)C(C)C)CCNC(=O)[C@@H](c2ccccc2F)NC1=O` [Cpd. No. 79, N-((3R,6S,9S,12R)-6-ethyl-3-(2-fluorophenyl)-9-(3-guanidinopropyl)-12-methyl-2,5,8,11-tetraoxo-1,4,7,10-tetraazacyclotetradecan-12-yl)isobutyramide] (Isobutyryl-[dαMeDab]R[Abu][dPhg(2-F)]; lactam 1-C), the IC50 on WDR5 turned out to be 0.32 nM; in assay [1] it was 0.35 µM. Further, the Ki at WDR5 is less than 1 nM.
On WDR5, `CC[C@@H]1NC(=O)[C@H](CCCNC(=N)N)NC(=O)[C@](C)(NC(=O)C(C)C)CCNC(=O)[C@@H](c2cccc(F)c2)NC1=O` [Cpd. No. 80, N-((3R,6S,9S,12R)-6-ethyl-3-(3-fluorophenyl)-9-(3-guanidinopropyl)-12-methyl-2,5,8,11-tetraoxo-1,4,7,10-tetraazacyclotetradecan-12-yl)isobutyramide] returned an IC50 of 2.87 nM and a Ki of less than 1 nM. Besides, the IC50 in assay [1] is 0.42 µM.
The like results for `CC[C@@H]1NC(=O)[C@H](CCCNC(=N)N)NC(=O)[C@](C)(NC(=O)C(C)C)CCNC(=O)[C@@H](c2ccc3ccccc3c2)NC1=O` [Cpd. No. 82, N-((3R,6S,9S,12R)-6-ethyl-9-(3-guanidinopropyl)-12-methyl-3-(naphthalen-2-yl)-2,5,8,11-tetraoxo-1,4,7,10-tetraazacyclotetradecan-12-yl)isobutyramide] were, in that order, 2.3 nM, less than 1 nM and 0.054 µM.
For `CC[C@@H]1NC(=O)[C@H](CCCNC(=N)N)NC(=O)[C@](C)(NC(=O)C(C)C)CCNC(=O)[C@@H](c2cccc(Cl)c2)NC1=O` [Cpd. No. 84, N-((3R,6S,9S,12R)-3-(3-chlorophenyl)-6-ethyl-9-(3-guanidinopropyl)-12-methyl-2,5,8,11-tetraoxo-1,4,7,10-tetraazacyclotetradecan-12-yl)isobutyramide], in that order: 1.48 nM, less than 1 nM and 0.51 µM.
The like results for `CCC[C@@H]1NC(=O)[C@H](CCCNC(=N)N)NC(=O)[C@](C)(NC(=O)C(C)C)CCNC(=O)[C@@H](c2ccccc2)NC1=O` [Cpd. No. 88, N-((3R,6S,9S,12R)-9-(3-guanidinopropyl)-12-methyl-2,5,8,11-tetraoxo-3-phenyl-6-propyl-1,4,7,10-tetraazacyclotetradecan-12-yl)isobutyramide] (Isobutyryl-[dαMeDab]R[Nva][dPhg]; lactam 1-C) were, in that order, 2.38 nM, less than 1 nM and 6.33 µM.
At WDR5, `CC(C)C(=O)N[C@]1(C)CCNC(=O)[C@@H](c2ccccc2)NC(=O)[C@H](C(C)C)NC(=O)[C@H](CCCNC(=N)N)NC1=O` [Cpd. No. 89, N-((3R,6S,9S,12R)-9-(3-guanidinopropyl)-6-isopropyl-12-methyl-2,5,8,11-tetraoxo-3-phenyl-1,4,7,10-tetraazacyclotetradecan-12-yl)isobutyramide] (Isobutyryl-[dαMeDab]RV[dPhg]; lactam 1-C) had an IC50 of 1.83 nM and a Ki of less than 1 nM. Further, the IC50 in assay [1] is more than 10 µM.
For `CC[C@@H]1NC(=O)[C@H](CCCNC(=N)NC(C)=O)NC(=O)[C@](C)(NC(=O)C(C)C)CCNC(=O)[C@@H](c2ccccc2)NC1=O` [Cpd. No. 91, N-((3R,6S,9S,12R)-9-(3-(3-acetylguanidino)propyl)-6-ethyl-12-methyl-2,5,8,11-tetraoxo-3-phenyl-1,4,7,10-tetraazacyclotetradecan-12-yl)isobutyramide] (Isobutyryl-[dαMeDab]R(Ac)[Abu][dPhg]; lactam 1-C), the concentration for half-maximal inhibition (IC50) on WDR5 worked out at 3.65 nM; in assay [1], 0.47 µM. Further, the Ki on WDR5 is less than 1 nM.
Consider `CC[C@@H]1NC(=O)[C@H](CCCNC2=NCCCN2)NC(=O)[C@](C)(NC(=O)C(C)C)CCNC(=O)[C@@H](c2ccccc2)NC1=O` [Cpd. No. 92, N-((3R,6S,9S,12R)-6-ethyl-12-methyl-2,5,8,11-tetraoxo-3-phenyl-9-(3-((1,4,5,6-tetrahydropyrimidin-2-yl)amino)propyl)-1,4,7,10-tetraazacyclotetradecan-12-yl)isobutyramide] (Isobutyryl-[dαMeDab][Arg(Nω,Nω'-propylene)][Abu][dPhg]; lactam 1-C), for which, at WDR5, the IC50 is 1.86 nM and the inhibition constant (Ki) was less than 1 nM. Moreover, the IC50 in assay [1] was 0.033 µM.
